# Tests used:
# [1] = tested on: S. sanguinis; assay: S. mutans / S. sanguinis competition model, S. sanguinis survival (Example 2); assay type: cell-based, Streptococcus sanguinis
# From the text: The effect of MUC5B on S. mutans and S. sanguinis competition and coexistence was examined. To examine the effect of MUC5B, a model was developed to allow sufficient competition between S. mutans and S. sanguinis (FIG. 7). The two bacteria compete when one colonizes the surface and the second bacteria is introduced after some time.
# The presence of 0.3% mucins in control medium, BHI containing 1% sucrose (S Medium), enhances S. sanguinis survival when S. mutans is the primary colonizer (FIG. 8A). * statistically significant difference determined by Student's t test (p<0.05). […] When the ratios of bacteria are equal (FIG. 8C), there is less competition, and effect of MUC5B is small. When the ratio is slightly skewed (FIG. 8B), competition increases and the protective effect of MUC5B is visible. * statistically significant difference determined by Student's t test (p<0.05). The protective effect of MUC5B may increase as inter-species competition increases. […] MUC5B may play a role in establishing a healthy oral microbiome.
# (§1) In FIG. 9, the biofilm is grown, then the supernatant is removed and the biofilm washed with PBS. To remove adherent cells, the bottom of the wells are scraped with a sterile pipette tip. Suspended cells are diluted, plated on agar and […] until colonies are visible.
# [2] = tested on: S. mutans; assay: S. mutans attachment and biofilm formation on glass (Example 2); assay type: cell-based, Streptococcus mutans; conditions: 0.3% polymer in BHI with 1% sucrose, compared to BHI with 1% sucrose
# Description: as §1
# As shown in FIG. 10A and FIG. 10B and FIG. 11A and FIG. 11B, salivary mucins decrease S. mutans attachment and biofilm formation. […] Error bars represent SDs. […] Scale Bars 20 μm.
# [3] = tested on: S. mutans; assay: S. mutans growth curve and viable cell count (Example 2); assay type: cell-based, Streptococcus mutans; conditions: 0.3% polymer in BHI with 1% sucrose
# From the text: As shown in FIG. 12 and FIG. 13, S. mutans survival is unaffected by salivary mucins. […] Error bars represent SDs. […] Error bars represent SDs.
# [4] = tested on: S. mutans; assay: CFU count assay, biofilm formation and total cells, single-species model, S. mutans; assay type: cell-based, Streptococcus mutans UA159; conditions: for reduction of S. mutans biofilm formation: 0.4% polymer
# Description: (§2) For all experiments, S. mutans (bacterial strain Streptococcus mutans UA159) and S. sanguinis (erythromycin-resistant Streptococcus sanguinis JFP36) were grown overnight in Brain Heart Infusion (BHI) medium (Becton, Dickinson and Company). Before inoculating an experiment the cells were pelleted, washed with half-strength BHI containing 1% (wt/vol) sucrose (Sigma-Aldrich Company), then resuspended in half-strength BHI containing 1% sucrose. Acid-washed glass beads (425-600 μm, Sigma-Aldrich Company) were added to the resuspended bacteria to break up bacterial aggregates then the culture was vortexed for ten pulses of two seconds each. […] All experiments were performed in chambered glass slides at 37° C. with 5% CO2.
# (§3) Equal numbers of CFU were inoculated into chambered glass slides then incubated. After a given amount of time, the supernatant was used to gently wash the biofilm to resuspend unattached cells, then the supernatant was removed. PBS was added to the wells then the biofilm was scraped using a sterile pipette tip. The supernatant and biofilm were vortexed with glass beads to individualize cells then the suspension was diluted, plated on BHI agar and incubated for 24-36 hours. […] Statistically significant differences were determined using the Student's t test, with P<0.05 considered significant.
# (§4) The effect of MUC5B on S. sanguinis and S. mutans biofilm formation in single-species models was evaluated using colony forming units to quantify surface attached cells and the total number of viable cells in the supernatant and biofilm combined. Bacteria were grown in chambered glass slides in the presence of half-strength BHI with 1% sucrose and 0.4% MUC5B. […] Half-strength BHI was used to provide consistent media conditions throughout experiments in this study. […] All comparisons of viable CFU discussed in the results are determined relative to the control with half-strength BHI and 1% sucrose.
# [5] = tested on: S. sanguinis; assay: CFU count assay, biofilm formation and total cells, single-species model, S. sanguinis; assay type: cell-based, Streptococcus sanguinis JFP36; conditions: for reduction of S. sanguinis biofilm formation: 0.4% polymer, relative to control
# Description: as §2, §3, §4
# [6] = tested on: S. mutans
# Description: For dual-species models where S. mutans was the primary colonizer, S. mutans (10^7) was inoculated and incubated for 3 hours then S. sanguinis (10^6) was inoculated. For dual-species models where S. sanguinis was the primary colonizer, S. sanguinis (10^8) was inoculated, incubated for 3 hours, then S. mutans (10^7) was inoculated. After the secondary colonizer was inoculated, the dual-species culture was incubated until the time points indicated. For experiments quantifying biofilm formation, at the end of the experiment the supernatant was used to gently wash the biofilm to resuspend unattached cells, then the supernatant was removed. […] For experiments quantifying total cells, at the end of the experiment a sterile pipette tip was used to scrape the biofilm, then the suspension of biofilm and supernatant cells was vortexed with glass beads. […] Statistically significant differences were determined using the Student's t test, with P<0.05 considered significant.
# An in vitro competition model was used to determine the effects of MUC5B on S. mutans and S. sanguinis biofilm formation when co-cultured. […] After 4 hours of co-culture, the supernatant was removed and the number of S. mutans and S. sanguinis in the biofilm were quantified by colony forming units. […] All comparisons of viable CFU discussed in the results are determined relative to the control with half-strength BHI and 1% sucrose. […]
# [7] = tested on: S. sanguinis; assay: Dual-species competition model, S. mutans primary colonizer: S. sanguinis CFU; assay type: cell-based, Streptococcus sanguinis JFP36; conditions: for increase of live S. sanguinis cells (secondary colonizer): S. mutans primary colonizer
# Description: (§5) Agar was incubated for 24-36 hours.
# [8] = tested on: S. sanguinis; assay: Dual-species competition model, S. sanguinis primary colonizer: S. sanguinis CFU; assay type: cell-based, Streptococcus sanguinis JFP36; conditions: 4 hours of co-culture
# Description: as §5
# [9] = tested on: S. mutans; assay: Dual-species competition model, S. sanguinis primary colonizer: S. mutans CFU; assay type: cell-based, Streptococcus mutans UA159; conditions: for increase of S. mutans CFU (secondary colonizer): S. sanguinis primary colonizer
# Description: For dual-species models where S. mutans was the primary colonizer, S. mutans (10^7) was inoculated and incubated for 3 hours then S. sanguinis (10^6) was inoculated. For dual-species models where S. sanguinis was the primary colonizer, S. sanguinis (10^8) was inoculated, incubated for 3 hours, then S. mutans (10^7) was inoculated. After the secondary colonizer was inoculated, the dual-species culture was incubated until the time points indicated. For experiments quantifying biofilm formation, at the end of the experiment the supernatant was used to gently wash the biofilm to resuspend unattached cells, then the supernatant was removed. PBS was added to the wells then the biofilm was scraped using a sterile pipette tip. For experiments quantifying total cells, at the end of the experiment a sterile pipette tip was used to scrape the biofilm, then the suspension of biofilm and supernatant cells was vortexed with glass beads. For both experiments, cell suspensions were diluted then plated on BHI agar containing 10 μg/ml erythromycin to select for S. sanguinis and BHI agar with 1 U/ml bacitracin to select for S. mutans. Agar was incubated for 24-36 hours. […] Statistically significant differences were determined using the Student's t test, with P<0.05 considered significant.
# An in vitro competition model was used to determine the effects of MUC5B on S. mutans and S. sanguinis biofilm formation when co-cultured. In this model, the pioneering colonizer was incubated for 3 hours then the secondary colonizer was inoculated and co-cultured for 4 hours (FIG. 15). The competition model used in this study is based on previous work by Kreth et al, J. Bacteriol. 187:7193-7203 (2005). In addition, sequential inoculation allows us to study competition in models where either S. sanguinis or S. mutans is the dominant species, which is relevant to the natural environment of the oral cavity. After 4 hours of co-culture, the supernatant was removed and the number of S. mutans and S. sanguinis in the biofilm were quantified by colony forming units. This method was used to evaluate biofilm formation when S. mutans is the primary colonizer (FIG. 16A) and when S. sanguinis is the primary colonizer (FIG. 16B). All comparisons of viable CFU discussed in the results are determined relative to the control with half-strength BHI and 1% sucrose.
# To evaluate the effect of MUC5B on the viability of S. mutans and S. sanguinis in a dual-species competition model, the primary colonizer was incubated for 3 hours then inoculated the secondary colonizer and evaluated the total number of viable cells for each species over several hours (FIG. 15). […] Comparisons of viable CFU discussed in the results are determined relative to the control with half-strength BHI and 1% sucrose.
# [10] = tested on: S. mutans; assay: S. mutans growth curve, mono-species culture (Example 3); assay type: cell-based, Streptococcus mutans UA159
# Description: (§6) The suspensions were vortexed with glass beads to individualize cells, then approximately 10^6 cells were inoculated into wells of a 96-well polystyrene plate. At 2-hour intervals the bottom of the wells were scraped to remove any adherent cells, mixed, and an aliquot was removed, diluted and plated on BHI agar. Agar was incubated and CFU were counted after 24-36 hours.
# (§7) The growth of S. mutans and S. sanguinis in the same medium used for competition experiments was evaluated to determine if the observed increase in viable cells in the presence of MUC5B (FIGS. 17A-C and FIGS. 18A-C) was due to enhanced bacterial growth. […] Growth in PBS containing MUC5B was studied to better understand if S. mutans and S. sanguinis can utilize MUC5B as a nutrient source when other nutrients are limited.
# [11] = tested on: S. sanguinis; assay: S. sanguinis growth curve, mono-species culture (Example 3); assay type: cell-based, Streptococcus sanguinis JFP36
# Description: as §6, §7
substance,measurement,setting,value
MUC5B: salivary mucin MUC5B purified by FPLC from pooled human submandibular saliva,S. sanguinis survival when S. mutans is the primary colonizer,"[1]; 0.3% mucins in BHI with 1% sucrose, S. sanguinis inoculated 3 hours after S. mutans, 4 hours incubation, p<0.05",enhances
same,"protective effect, ratio of bacteria slightly skewed",[1]; ratio slightly skewed (FIG. 8B),visible
same,"effect on S. sanguinis / S. mutans competition, equal ratios of bacteria",[1]; ratios of bacteria equal (FIG. 8C),small
same,levels of S. mutans attachment and biofilm formation on glass,[2],significantly reduces
same,growth of S. mutans (growth curve),[3],does not alter the growth
same,number of viable S. mutans cells (bactericidal effect),[3]; timepoints up to 24 hours,no bactericidal effects
same,total number of viable S. mutans cells (biofilm and supernatant),[4]; 6 hours,decreased slightly
same,reduction of S. mutans biofilm formation,"[4]; 6 hours, relative to half-strength BHI with 1% sucrose",94%
same,S. mutans cells in the biofilm as share of total cells,"[4]; 6 hours, with MUC5B (control without polymer 66%)",13%
same,total number of S. mutans cells,[4]; 9 hours,no significant effect
same,reduction of S. mutans biofilm formation,"[4]; 9 hours, relative to control",92%
same,number of viable S. sanguinis in the biofilm and supernatant,[5]; 6 and 9 hours,did not change
same,reduction of S. sanguinis biofilm formation,[5]; 6 hours,94%
same,reduction of S. sanguinis biofilm formation,[5]; 9 hours,86%
same,decrease of S. mutans (primary colonizer) biofilm formation,"[6]; 4 hours of co-culture, relative to control",95%
same,effect on total viable S. mutans cells,"[6]; S. mutans primary colonizer, 5 hours of co-culture",no effect
same,increase of S. sanguinis (secondary colonizer) biofilm formation,"[7]; S. mutans pioneering species, 4 hours of co-culture",313%
same,increase of live S. sanguinis cells (secondary colonizer),[7]; 4 hours of co-culture,1670%
same,increase of live S. sanguinis cells (secondary colonizer),[7]; 5 hours of co-culture,8700%
same,reduction of S. sanguinis (pioneering species) biofilm formation,[8]; S. sanguinis pioneering species,68%
same,increase of viable S. sanguinis cells (primary colonizer),[8]; S. sanguinis primary colonizer,826%
same,effect on S. mutans (secondary colonizer) biofilm formation,"[9]; S. sanguinis pioneering species, 4 hours of co-culture",no significant effect
same,increase of S. mutans CFU (secondary colonizer),[9]; 4 hours of co-culture,74%
same,increase of S. mutans CFU (secondary colonizer),[9]; 5 hours of co-culture,235%
same,increase of S. mutans CFU (secondary colonizer),[9]; 6 hours of co-culture,568%
same,effect on S. mutans growth,"[10]; 0.4% polymer in half-strength BHI with 1% sucrose, time points up to 10 hours",slightly reduced or had no effect
same,S. mutans growth with MUC5B as nutrient source,[10]; PBS with 0.4% MUC5B,neither bacterium can utilize MUC5B to enhance growth
same,effect on S. sanguinis growth,[11]; 0.4% polymer in half-strength BHI with 1% sucrose,not significantly changed
same,S. sanguinis growth with MUC5B as nutrient source,[11]; PBS with 0.4% MUC5B,neither bacterium can utilize MUC5B to enhance growth
